Laboratory results from US11472857B2 (Purdue Research Foundation, priority 2015, dated 2022).
“Also recorded” adds a separate entry of the source.

System: male Wistar rats
Experiment: In vivo blood glucose elevation after s.c. injection
Parameters: species or system rat
Description: Rats were catheterized to enable collection of blood samples at various time points. The total blood glucose level was measured by withdrawing blood at regular intervals (5-120 min) and tested using [sequence] LITE (glucose test meters, Abbott, Chicago, Ill.).

For phospho-Thr7-glucagon, the “Blood glucose elevation compared with native glucagon” value (7.1 nmol/kg s.c.) was “slower response and a somewhat lower blood glucose peak; also recorded: somewhat slower increase”.
For phospho-Ser16-glucagon, the “Maximum elevation in blood glucose” value (2.8 nmol/kg s.c.) was about 10 mg/dL, the “Blood glucose elevation compared with native glucagon” value (7.1 nmol/kg s.c.) was “activity comparable to that of native glucagon” and the “Maximum increase in blood glucose” value (7.1 nmol/kg s.c.) was about 50 mg/dL. The “Time of peak blood glucose” value (7.1 nmol/kg s.c.) was 20 min.
In the case of phospho-Tyr13-glucagon, the “Blood glucose elevation compared with native glucagon” value (7.1 nmol/kg s.c.) is reported as “response similar to that of phospho-Thr5-glucagon and phospho-Ser16-glucagon; also recorded: comparable to native glucagon”.
